Measured values reported in patent US20220071891A1, “Extract of Chlamydomonas Acidophila, Method for Preparing Same and Cosmetic Compositions and Dermatological Compositions Comprising Same” (Laboratoires Expanscience, priority 2018, published 2022).

Assays:
[1] = test system: keratinocytes treated with hydrogen peroxide (H2O2); experiment: ROS production (DCFH-DA) in keratinocytes treated with H2O2; assay type: cell-based, human; details: 24 h preincubation, 100 μM H2O2 20 minutes
Description: The evaluation of the antioxidant effect of the active agent is done through the incorporation of DCFH-DA (2′,7′-dichlorofluorescin diacetate) into cultured keratinocytes. This molecule is a non-fluorescent marker in the non-oxidized state. Under oxidizing conditions (here H2O2 stress), DCFH-DA will be degraded to DCF, a molecule that will emit fluorescence. The fluorescence measured will be proportional to the amount of reactive oxygen species produced by the cell in the presence of H2O2 and/or the extract. Normal human epidermal keratinocytes were preincubated for 24 hours in the presence of the CAP extract at 0.0001% dry matter, quercetin at 10 μM or vitamin C at 500 μM (the latter two molecules serving as antioxidant reference). The cells are then treated for 1 h in the presence of 0.5 mM DCFH-DA. Oxidation is induced by adding 100 μM H2O2 for 20 minutes. A second treatment with the tested products is performed simultaneously with H2O2 stress (at the same concentrations as the pretreatment). Finally, a measurement of the fluorescence density (DFU) corresponding to the amount of ROS is performed using a microplate reader. The significance of the results was checked by a one-way ANOVA followed by a Tuckey test (GraphPad Prism software version 5.02, GraphPad Software, San Diego Calif. USA).

human basophils = experiment: Basophil activation test (Flow CAST), fMLP-stimulated; assay type: cell-based; details: whole blood, 1 μM fMLP
Method: (§1) The potential anti-allergic effects of the Chlamydomonas acidophila extract were investigated on: • Gene expression of pro-inflammatory chemokines in normal human epidermal keratinocytes (NHEK) stimulated by a mixture of Th2 cytokines (IL-4+IL-13+IL-22+TNF-α) mimicking a late-phase “atopic dermatitis” type phenotype (chronic inflammation). • Activation of human basophils induced by fMLP. This activation was measured using a specific kit and flow cytometry analysis by quantifying a specific marker of activated basophil cells (CD63) in the total population of basophils identified by expression of the CCR3 marker. In parallel, activation with the anti-FCεRI antibody was performed as a positive control.
The basophil activation test (BAT) was performed using the Flow CAST® kit (BUHLMANN, item code FKCCR).
Whole blood was preincubated for 15 minutes in the presence of the CAP extract at 0.033% and 0.1% dry matter (DM) or the references (SB202190 at 30 μM; or cromoglycate at 10 mM).
The stimulant, 1 μM fMLP, was then added and the blood was incubated for an additional 15 minutes in the presence of the labeling buffer containing a mixture of monoclonal antibodies (anti-CD63-FITC and anti-CCR3-PE).
Flow cytometry analysis was then performed to count the total population of basophils (CCR3+) and activated basophils (CCR3+/CD63+).

[2] = test system: cadmium-stimulated normal human keratinocytes; experiment: PGE2 assay in cadmium-stimulated keratinocytes; assay type: cell-based; details: 0.1 μM, 24 h pretreatment, then 100 μM CdCl2 48 h
Method: Normal human epidermal keratinocytes were pretreated for 24 hours with the CAP extract at 0.001% and 0.01% dry matter or with the anti-inflammatory reference molecule indomethacin at […]. The keratinocytes were then treated for 48 hours with cadmium: CdCl2 at 100 μM. At the end of the incubation, the amount of PGE2 produced by the cells was assessed by ELISA in the supernatants. The concentration of PGE2 assayed was normalized to the amount of total intracellular protein assessed by BC Assay.

[3] = test system: normal human keratinocytes stimulated with PMA; experiment: PGE2 assay in keratinocytes stimulated with PMA; assay type: cell-based; details: 0.1 μM, 24 h pretreatment; for PGE2, change vs PMA: then 10 μg/ml PMA; for PGE2, mean: then 10 μg/ml PMA overnight
Method: (§2) The anti-inflammatory activity of the Chlamydomonas acidophila extract according to the invention was evaluated on a model of inflammation induced on keratinocytes by PMA (phorbol 12-myristate 13-acetate) treatment. The release of the cytokines TNFα and prostaglandin E2 (PGE2) was analyzed.
(§3) Normal human epidermal keratinocytes were pretreated for 24 h with the Chlamydomonas acidophila (CAP) extract according to Example 1, at concentrations comprised between 0.0001% and 0.05% dry matter, or with the anti-inflammatory reference molecules dexamethasone at 0.1 μM or indomethacin at 0.1 μM (the latter two references serving as anti-inflammatory references for cytokines and prostaglandins, respectively).
(§4) Inflammation was then induced by addition of PMA at 10 μg/mL overnight.
(§5) A TNFα and PGE2 assay was then performed in the cell culture supernatants.
(§6) The significance of the results was checked by a one-way ANOVA followed by a Tuckey test (GraphPad Prism software version 5.02, GraphPad Software, San Diego Calif. USA).

[4] = test system: normal human keratinocytes stimulated with PMA; experiment: TNF-alpha assay in keratinocytes stimulated with PMA; assay type: cell-based; details: 0.1 μM, 24 h pretreatment; for TNF-alpha, change vs PMA: then 10 μg/ml PMA; for TNF-alpha, mean: then 10 μg/ml PMA overnight
Method: as §2, §3, §4, §5, §6

[5] = test system: NiSO4-stimulated normal human keratinocytes; experiment: IL8 assay in NiSO4-stimulated keratinocytes; assay type: cell-based; details: 1 μM, 24 h pretreatment, then 10 μM NiSO4 24 h
Method: Normal human epidermal keratinocytes were pretreated for 24 hours with CAP extract at 0.01% and 0.05% dry matter or with the anti-inflammatory reference molecule dexamethasone at 1 μM. The keratinocytes were then treated for 24 hours with nickel: NiSO4 at 10 μM. At the end of the incubation, the amount of IL8 produced by the cells was assessed by ELISA in the supernatants.
The concentration of IL8 assayed was normalized to the amount of total intracellular protein assessed by BC Assay.
Significance of results was statistically analyzed by a Student's t-test.

[6] = test system: epidermal keratinocytes subjected to Th2 stress; experiment: qRT-PCR gene expression in keratinocytes subjected to Th2 stress; assay type: cell-based, human; details: 10 μM, 24 h preincubation, Th2 cytokine cocktail 24 h; control = 100
Method: as §1
Normal human epidermal keratinocytes were preincubated for 24 hours in the presence of the CAP extract at 0.01% dry matter (DM) or reference JAK inhibitor I at 10 μM. After preincubation, the cells were retreated with the CAP extract or reference and then the cells were stimulated with a Th2 cytokine cocktail (IL4+1L13+1L22+TNFα at 10 ng/ml) for 24 hours.
At the end of incubation, gene expression of markers of interest was assessed by qRT-PCR.

O=c1c(O)c(-c2ccc(O)c(O)c2)oc2cc(O)cc(O)c12 [Quercetin, quercetin] was tested, and the “ROS, change vs H2O2” value ([1]; 10 μM) was −92% vs H2O2 and the “ROS, mean” value ([1]; 10 μM) was 7787.00 fluorescence units.
O=C(O)c1cc(=O)c2c(OCC(O)COc3cccc4oc(C(=O)O)cc(=O)c34)cccc2o1 [cromoglycate] was tested, and the “% of activated basophils (CCR3+/CD63+), mean” value (human basophils; 10 μM (table; text 10 mM)) was 22.3%.
With COc1ccc2c(c1)c(CC(=O)O)c(C)n2C(=O)c1ccc(Cl)cc1 [indomethacin] the “PGE2, change vs Cd” value [2] was −54% vs Cd, the “PGE2, mean” value [2] was 3.874 pg/μg of protein and the “PGE2, change vs PMA” value [3] was −87% vs PMA. The “PGE2, mean” value [3] was 163.031 pg/mL, the “TNF-alpha, change vs PMA” value [4] was −60% and the “TNF-alpha, mean” value [4] was 113.266 pg/mL.
For O=C1O[C@H]([C@@H](O)CO)C(O)=C1O [Vitamin C, vitamin C], the “ROS, change vs H2O2” value ([1]; 500 μM) was −89% vs H2O2 and the “ROS, mean” value ([1]; 500 μM) was 10932.50 fluorescence units.
In the case of C[C@@H]1C[C@H]2[C@@H]3CCC4=CC(=O)C=C[C@]4(C)[C@@]3(F)[C@@H](O)C[C@]2(C)[C@@]1(O)C(=O)CO [dexamethasone], the “IL8, change vs Ni” value [5] is reported as −63% vs Ni, the “IL8, mean” value [5] is reported as 1685 pg/ml/mg protein and the “PGE2, change vs PMA” value [3] is reported as −22% vs PMA. The “PGE2, mean” value [3] was 985.126 pg/mL, the “TNF-alpha, change vs PMA” value [4] was −56% vs PMA and the “TNF-alpha, mean” value [4] was 126.112 pg/mL.
For CC(C)(C)c1nc2c3cc[nH]c(=O)c3c3cc(F)ccc3c2[nH]1 [JAK inhibitor], the “CCL5 Relative expression (%)” value [6] was 101% and the “CCL27 Relative expression (%)” value [6] was 1436%.
For Oc1ccc(-c2nc(-c3ccncc3)c(-c3ccc(F)cc3)[nH]2)cc1 [SB202190], the “% of activated basophils (CCR3+/CD63+), mean” value (human basophils; 30 μM) was 30.4%.
